Patent US20260345596A1, “TREATMENT OF LOCALLY ADVANCED OR METASTATIC UROTHELIAL CARCINOMA WITH ERDAFINITIB” (priority 2023, published 2026)

Experiment: Study BLC3001 (NCT03390504, THOR) Cohort 1: safety, adverse events, laboratory abnormalities and exposure
Details: for Central serous retinopathy / Chorioretinopathy / Detachment of macular retinal pigment epithelium / Detachment of retinal pigment epithelium / Eye disorders (excluding central serous retinopathy) / Macular detachment / Nail disorders / Retinopathy / Skin disorders / Subretinal fluid: adverse events of interest; for Hematuria / Hyponatremia / Urinary tract infection: serious adverse events, any cause

SMILES: COc1cc(OC)cc(N(CCNC(C)C)c2ccc3ncc(-c4cnn(C)c4)nc3c2)c1 [Erdafitinib, N-(3,5-dimethoxyphenyl)-N′-(1-methylethyl)-N-[3-(1-methyl-1H-pyrazol-4-yl)quinoxalin-6-yl]ethane-1,2-diamine]
- Ongoing central serous retinopathy events of grade 1 (5 of 7 ongoing): 71%
- Central serous retinopathy events resolved by clinical cutoff (16 of 23 patients, any grade): 70%
- Central serous retinopathy (Grade 1): 12 (8.9) no. (%)
- Chorioretinopathy (Grade 1): 5 (3.7) no. (%)
- Detachment of macular retinal pigment epithelium (Grade 1): 0 no. (%)
- Detachment of retinal pigment epithelium (Grade 1): 3 (2.2) no. (%)
- Eye disorders (excluding central serous retinopathy) (Grade 1): 37 (27.4) no. (%)
- Macular detachment (Grade 1): 2 (1.5) no. (%)
- Nail disorders (Grade 1): 25 (18.5) no. (%)
- Retinopathy (Grade 1): 0 no. (%)
- Skin disorders (Grade 1): 27 (20) no. (%)
- Subretinal fluid (Grade 1): 4 (3.0) no. (%)
- Hematuria (Grade 1): 0 no. (%)
- Hyponatremia (Grade 1): 0 no. (%)
- Urinary tract infection (Grade 1): 0 no. (%)
- Alanine aminotransferase increased (Grade 1, treatment-emergent): 28 (20.7) no. (%)
- Alopecia (Grade 1, treatment-emergent): 29 (21.5) no. (%)
- Anemia (Grade 1, treatment-emergent): 10 (7.4) no. (%)
- Aspartate aminotransferase increased (Grade 1, treatment-emergent): 21 (15.6) no. (%)
- Asthenia (Grade 1, treatment-emergent): 6 (4.4) no. (%)
- Constipation (Grade 1, treatment-emergent): 24 (17.8) no. (%)
- Decreased appetite (Grade 1, treatment-emergent): 18 (13.3) no. (%)
- Diarrhea (Grade 1, treatment-emergent): 49 (36.3) no. (%)
- Dry eye (Grade 1, treatment-emergent): 20 (14.8) no. (%)
- Dry mouth (Grade 1, treatment-emergent): 45 (33.3) no. (%)
- Dry skin (Grade 1, treatment-emergent): 23 (17.0) no. (%)
- Dysgeusia (Grade 1, treatment-emergent): 28 (20.7) no. (%)
- Fatigue (Grade 1, treatment-emergent): 12 (8.9) no. (%)
- Hyperphosphatemia (Grade 1, treatment-emergent): 70 (51.9) no. (%)
- Nausea (Grade 1, treatment-emergent): 10 (7.4) no. (%)
- Neutropenia (Grade 1, treatment-emergent): 0 no. (%)
- Onycholysis (Grade 1, treatment-emergent): 9 (6.7) no. (%)
- Onychomadesis (Grade 1, treatment-emergent): 9 (6.7) no. (%)
- Palmar-plantar erythrodysesthesia syndrome (Grade 1, treatment-emergent): 6 (4.4) no. (%)
- Stomatitis (Grade 1, treatment-emergent): 22 (16.3) no. (%)
- Weight decreased (Grade 1, treatment-emergent): 12 (8.9) no. (%)
- Alanine aminotransferase increased (Grade 1, treatment-related): 18 (13.3) no. (%)
- Alopecia (Grade 1, treatment-related): 27 (20.0) no. (%)
- Anemia (Grade 1, treatment-related): 8 (5.9) no. (%)
- Aspartate aminotransferase increased (Grade 1, treatment-related): 18 (13.3) no. (%)
- Asthenia (Grade 1, treatment-related): 4 (3.0) no. (%)
- Constipation (Grade 1, treatment-related): 8 (5.9) no. (%)
- Decreased appetite (Grade 1, treatment-related): 15 (11.1) no. (%)
- Diarrhea (Grade 1, treatment-related): 43 (31.9) no. (%)
- Dry eye (Grade 1, treatment-related): 19 (14.1) no. (%)
- Dry mouth (Grade 1, treatment-related): 44 (32.6) no. (%)
- Dry skin (Grade 1, treatment-related): 22 (16.3) no. (%)
- Dysgeusia (Grade 1, treatment-related): 25 (18.5) no. (%)
- Fatigue (Grade 1, treatment-related): 12 (8.9) no. (%)
- Hyperphosphatemia (Grade 1, treatment-related): 70 (51.9) no. (%)
- Nausea (Grade 1, treatment-related): 6 (4.4) no. (%)
- Neutropenia (Grade 1, treatment-related): 0 no. (%)
- Onycholysis (Grade 1, treatment-related): 9 (6.7) no. (%)
- Onychomadesis (Grade 1, treatment-related): 8 (5.9) no. (%)
- Palmar-plantar erythrodysesthesia syndrome (Grade 1, treatment-related): 6 (4.4) no. (%)
- Stomatitis (Grade 1, treatment-related): 20 (14.8) no. (%)
- Central serous retinopathy (Grade 2): 8 (5.9) no. (%)
- Chorioretinopathy (Grade 2): 3 (2.2) no. (%)
- Detachment of macular retinal pigment epithelium (Grade 2): 0 no. (%)
- Detachment of retinal pigment epithelium (Grade 2): 2 (1.5) no. (%)
- Eye disorders (excluding central serous retinopathy) (Grade 2): 17 (12.6) no. (%)
- Macular detachment (Grade 2): 0 no. (%)
- Nail disorders (Grade 2): 50 (37.0) no. (%)
- Retinopathy (Grade 2): 2 (1.5) no. (%)
- Skin disorders (Grade 2): 31 (23.0) no. (%)
- Subretinal fluid (Grade 2): 1 (0.7) no. (%)
- Hematuria (Grade 2): 2 (1.5) no. (%)
- Hyponatremia (Grade 2): 0 no. (%)
- Urinary tract infection (Grade 2): 0 no. (%)
- Alanine aminotransferase increased (Grade 2, treatment-emergent): 8 (5.9) no. (%)
- Alopecia (Grade 2, treatment-emergent): 4 (3.0) no. (%)
- Aspartate aminotransferase increased (Grade 2, treatment-emergent): 5 (3.7) no. (%)
- Asthenia (Grade 2, treatment-emergent): 12 (8.9) no. (%)
- Constipation (Grade 2, treatment-emergent): 12 (8.9) no. (%)
- Decreased appetite (Grade 2, treatment-emergent): 14 (10.4) no. (%)
- Diarrhea (Grade 2, treatment-emergent): 31 (23.0) no. (%)
- Dry eye (Grade 2, treatment-emergent): 3 (2.2) no. (%)
- Dry mouth (Grade 2, treatment-emergent): 8 (5.9) no. (%)
- Dry skin (Grade 2, treatment-emergent): 6 (4.4) no. (%)
- Dysgeusia (Grade 2, treatment-emergent): 8 (5.9) no. (%)
- Fatigue (Grade 2, treatment-emergent): 8 (5.9) no. (%)
- Hyperphosphatemia (Grade 2, treatment-emergent): 31 (23.0) no. (%)
- Nausea (Grade 2, treatment-emergent): 8 (5.9) no. (%)
- Neutropenia (Grade 2, treatment-emergent): 0 no. (%)
- Onycholysis (Grade 2, treatment-emergent): 14 (10.4) no. (%)
- Onychomadesis (Grade 2, treatment-emergent): 17 (12.6) no. (%)
- Palmar-plantar erythrodysesthesia syndrome (Grade 2, treatment-emergent): 22 (16.3) no. (%)
- Stomatitis (Grade 2, treatment-emergent): 32 (23.7) no. (%)
- Weight decreased (Grade 2, treatment-emergent): 15 (11.1) no. (%)
- Alanine aminotransferase increased (Grade 2, treatment-related): 7 (5.2) no. (%)
- Alopecia (Grade 2, treatment-related): 4 (3.0) no. (%)
- Anemia (Grade 2, treatment-related): 4 (3.0) no. (%)
- Aspartate aminotransferase increased (Grade 2, treatment-related): 5 (3.7) no. (%)
- Asthenia (Grade 2, treatment-related): 6 (4.4) no. (%)
- Constipation (Grade 2, treatment-related): 4 (3.0) no. (%)
- Decreased appetite (Grade 2, treatment-related): 10 (7.4) no. (%)
- Diarrhea (Grade 2, treatment-related): 27 (20.0) no. (%)
- Dry eye (Grade 2, treatment-related): 3 (2.2) no. (%)
- Dry mouth (Grade 2, treatment-related): 8 (5.9) no. (%)
- Dry skin (Grade 2, treatment-related): 6 (4.4) no. (%)
- Dysgeusia (Grade 2, treatment-related): 8 (5.9) no. (%)
- Fatigue (Grade 2, treatment-related): 6 (4.4) no. (%)
- Hyperphosphatemia (Grade 2, treatment-related): 29 (21.5) no. (%)
- Nausea (Grade 2, treatment-related): 7 (5.2) no. (%)
- Neutropenia (Grade 2, treatment-related): 0 no. (%)
- Onycholysis (Grade 2, treatment-related): 14 (10.4) no. (%)
- Onychomadesis (Grade 2, treatment-related): 17 (12.6) no. (%)
- Palmar-plantar erythrodysesthesia syndrome (Grade 2, treatment-related): 22 (16.3) no. (%)
- Stomatitis (Grade 2, treatment-related): 31 (23.0) no. (%)
- Central serous retinopathy (Grade ≥3): 3 (2.2) no. (%)
- Chorioretinopathy (Grade ≥3): 0 no. (%)
- Detachment of macular retinal pigment epithelium (Grade ≥3): 1 (0.7) no. (%)
- Detachment of retinal pigment epithelium (Grade ≥3): 2 (1.5) no. (%)
- Eye disorders (excluding central serous retinopathy) (Grade ≥3): 3 (2.2) no. (%)
- Macular detachment (Grade ≥3): 0 no. (%)
- Nail disorders (Grade ≥3): 15 (11.1) no. (%)
- Retinopathy (Grade ≥3): 0 no. (%)
- Skin disorders (Grade ≥3): 16 (11.9) no. (%)
- Subretinal fluid (Grade ≥3): 0 no. (%)
- Hematuria (Grade ≥3): 3 (2.2) no. (%)
- Hyponatremia (Grade ≥3): 3 (2.2) no. (%)
- Urinary tract infection (Grade ≥3): 6 (4.4) no. (%)
- Alanine aminotransferase increased (Grade ≥3, treatment-emergent): 4 (3.0) no. (%)
- Alopecia (Grade ≥3, treatment-emergent): 1 (0.7) no. (%)
- Anemia (Grade ≥3, treatment-emergent): 10 (7.4) no. (%)
- Aspartate aminotransferase increased (Grade ≥3, treatment-emergent): 3 (2.2) no. (%)
- Asthenia (Grade ≥3, treatment-emergent): 2 (1.5) no. (%)
- Constipation (Grade ≥3, treatment-emergent): 0 no. (%)
- Decreased appetite (Grade ≥3, treatment-emergent): 4 (3.0) no. (%)
- Diarrhea (Grade ≥3, treatment-emergent): 4 (3.0) no. (%)
- Dry eye (Grade ≥3, treatment-emergent): 0 no. (%)
- Dry mouth (Grade ≥3, treatment-emergent): 0 no. (%)
- Dry skin (Grade ≥3, treatment-emergent): 2 (1.5) no. (%)
- Dysgeusia (Grade ≥3, treatment-emergent): 1 (0.7) no. (%)
- Fatigue (Grade ≥3, treatment-emergent): 0 no. (%)
- Hyperphosphatemia (Grade ≥3, treatment-emergent): 7 (5.2) no. (%)
- Nausea (Grade ≥3, treatment-emergent): 2 (1.5) no. (%)
- Neutropenia (Grade ≥3, treatment-emergent): 0 no. (%)
- Onycholysis (Grade ≥3, treatment-emergent): 8 (5.9) no. (%)
- Onychomadesis (Grade ≥3, treatment-emergent): 2 (1.5) no. (%)
- Palmar-plantar erythrodysesthesia syndrome (Grade ≥3, treatment-emergent): 13 (9.6) no. (%)
- Stomatitis (Grade ≥3, treatment-emergent): 11 (8.1) no. (%)
- Weight decreased (Grade ≥3, treatment-emergent): 3 (2.2) no. (%)
- Alanine aminotransferase increased (Grade ≥3, treatment-related): 4 (3.0) no. (%)
- Alopecia (Grade ≥3, treatment-related): 1 (0.7) no. (%)
- Anemia (Grade ≥3, treatment-related): 4 (3.0) no. (%)
